In the assay the test system is Mus musculus. Kind of assay: Neuroprotective activity against hypoxia-ischemia brain injured mouse model assessed as reduction in infarct volume at 20 mg/kg, ip measured after 72 hrs by immuno-histochemistry based staining analysis relative to control. In kind it is functional. Further details: scale not given: the % may be the effect or the level left.

Consider `Oc1cccnc1NC(c1ccc(Cl)cc1)c1ccc2cccnc2c1O` (stereo unspecified), for which the Activity is given as 26.3%.

The record behind these values is ChEMBL document CHEMBL5550140, “Emerging ferroptosis inhibitors as a novel therapeutic strategy for the treatment of neonatal hypoxic-ischemic encephalopathy” (2024).
